Experimental data taken from ChEMBL document CHEMBL1134098, “Bioisosteric determinants for subtype selectivity of ligands for heteromeric GABA(A) receptors” (Bioorg Med Chem Lett, 2001).

What was measured:
[1] = target: GABA-A receptor; alpha-1/beta-3/gamma-2 (Homo sapiens) (UniProt P14867+P18507+P28472); assay: Maximal response relative to Gamma-aminobutyric acid A against human Gamma-aminobutyric-acid A receptor alpha-1-beta-3-gamma-2 expressed in Xenopus oocytes; format: functional, cell-based; details: Oocyte
[2] = target: T1, GABA A receptor alpha-4/beta-3/gamma-2 (Homo sapiens, UniProt P18507+P28472+P48169); assay: Maximal response relative to Gamma-aminobutyric acid A against human Gamma-aminobutyric-acid A receptor alpha-4-beta-3-gamma-2 expressed in Xenopus oocytes; format: functional, cell-based; details: Oocyte
[3] = target: GABA-A receptor; alpha-2/beta-3/gamma-2 (Homo sapiens) (UniProt P18507+P28472+P47869); assay: Maximal response relative to Gamma-aminobutyric acid A against human Gamma-aminobutyric-acid A receptor alpha-2-beta-3-gamma-2 expressed in Xenopus oocytes; format: functional, cell-based; details: Oocyte
[4] = target: GABA-A receptor; alpha-3/beta-3/gamma-2 (Homo sapiens) (UniProt P18507+P28472+P34903); assay: Maximal response relative to Gamma-aminobutyric acid A against human Gamma-aminobutyric-acid A receptor alpha-3-beta-3-gamma-2 expressed in Xenopus oocytes; format: functional, cell-based; details: Oocyte
[5] = target: GABA-A receptor; alpha-5/beta-3/gamma-2 (Homo sapiens) (UniProt P18507+P28472+P31644); assay: Maximal response relative to Gamma-aminobutyric acid A against human Gamma-aminobutyric-acid A receptor alpha-5-beta-3-gamma-2 expressed in Xenopus oocytes; format: functional, cell-based; details: Oocyte
[6] = target: T2, GABA-A receptor; alpha-6/beta-3/gamma-2 (Homo sapiens, UniProt P18507+P28472+Q16445); assay: Maximal response relative to Gamma-aminobutyric acid A against human Gamma-aminobutyric-acid A receptor alpha-6-beta-3-gamma-2 expressed in Xenopus oocytes; format: functional, cell-based; details: Oocyte
[7] = target: T3, GABA-A receptor; alpha-3/beta-3/gamma-2 (Homo sapiens, UniProt P18507+P28472+P34903); assay: Agonist activity on human Gamma-aminobutyric acid A receptor alpha-3-beta-3-gamma-2 expressed in Xenopus oocytes; format: functional, cell-based, Oocyte
T3 sequence (P18507 whole entry): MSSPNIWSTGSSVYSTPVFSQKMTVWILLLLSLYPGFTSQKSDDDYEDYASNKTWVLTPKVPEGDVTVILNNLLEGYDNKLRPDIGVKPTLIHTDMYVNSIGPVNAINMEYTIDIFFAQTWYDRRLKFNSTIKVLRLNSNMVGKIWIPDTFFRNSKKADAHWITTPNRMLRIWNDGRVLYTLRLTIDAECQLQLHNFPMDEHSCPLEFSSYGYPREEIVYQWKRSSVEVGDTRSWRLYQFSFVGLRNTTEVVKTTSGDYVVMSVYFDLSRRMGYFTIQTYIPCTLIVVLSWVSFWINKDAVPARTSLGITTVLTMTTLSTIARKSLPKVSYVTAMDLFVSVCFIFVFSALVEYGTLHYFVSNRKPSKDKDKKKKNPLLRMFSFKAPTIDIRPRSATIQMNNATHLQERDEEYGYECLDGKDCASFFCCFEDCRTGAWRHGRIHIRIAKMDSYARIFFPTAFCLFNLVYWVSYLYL
T3 sequence (P28472 whole entry): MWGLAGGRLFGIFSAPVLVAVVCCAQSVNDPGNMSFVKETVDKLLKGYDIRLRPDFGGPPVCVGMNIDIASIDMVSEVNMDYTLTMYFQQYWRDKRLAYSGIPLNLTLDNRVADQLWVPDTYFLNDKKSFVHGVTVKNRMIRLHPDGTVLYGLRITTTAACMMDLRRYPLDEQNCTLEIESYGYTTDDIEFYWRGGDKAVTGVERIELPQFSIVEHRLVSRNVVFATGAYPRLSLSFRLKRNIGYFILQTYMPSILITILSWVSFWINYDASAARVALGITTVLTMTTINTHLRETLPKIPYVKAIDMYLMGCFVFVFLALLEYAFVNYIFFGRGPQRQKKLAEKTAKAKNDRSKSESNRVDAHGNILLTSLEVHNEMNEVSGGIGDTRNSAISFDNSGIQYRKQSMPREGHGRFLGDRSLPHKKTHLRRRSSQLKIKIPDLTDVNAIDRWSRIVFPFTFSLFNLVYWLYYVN
T3 sequence (P34903 whole entry): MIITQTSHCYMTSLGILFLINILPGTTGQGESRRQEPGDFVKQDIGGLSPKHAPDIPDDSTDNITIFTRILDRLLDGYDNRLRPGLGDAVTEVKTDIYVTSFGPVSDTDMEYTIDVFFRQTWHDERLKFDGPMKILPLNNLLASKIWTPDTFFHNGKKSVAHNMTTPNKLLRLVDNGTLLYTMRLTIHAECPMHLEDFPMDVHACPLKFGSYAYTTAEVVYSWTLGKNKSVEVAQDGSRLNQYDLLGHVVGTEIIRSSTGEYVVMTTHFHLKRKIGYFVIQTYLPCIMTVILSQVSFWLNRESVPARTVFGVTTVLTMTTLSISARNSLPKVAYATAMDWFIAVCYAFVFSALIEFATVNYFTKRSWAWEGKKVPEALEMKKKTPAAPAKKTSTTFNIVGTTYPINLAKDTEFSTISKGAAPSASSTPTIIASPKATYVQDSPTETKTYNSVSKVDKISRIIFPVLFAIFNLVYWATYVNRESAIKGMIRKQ

[8] = target: T4, GABA-A receptor; alpha-1/beta-3/gamma-2 (Homo sapiens, UniProt P14867+P18507+P28472); assay: Effective agonist dose for human Gamma-aminobutyric acid A receptor alpha-1-beta-3-gamma-2 expressed in Xenopus oocytes; format: functional, cell-based, Oocyte
T4 sequence (P14867 whole entry): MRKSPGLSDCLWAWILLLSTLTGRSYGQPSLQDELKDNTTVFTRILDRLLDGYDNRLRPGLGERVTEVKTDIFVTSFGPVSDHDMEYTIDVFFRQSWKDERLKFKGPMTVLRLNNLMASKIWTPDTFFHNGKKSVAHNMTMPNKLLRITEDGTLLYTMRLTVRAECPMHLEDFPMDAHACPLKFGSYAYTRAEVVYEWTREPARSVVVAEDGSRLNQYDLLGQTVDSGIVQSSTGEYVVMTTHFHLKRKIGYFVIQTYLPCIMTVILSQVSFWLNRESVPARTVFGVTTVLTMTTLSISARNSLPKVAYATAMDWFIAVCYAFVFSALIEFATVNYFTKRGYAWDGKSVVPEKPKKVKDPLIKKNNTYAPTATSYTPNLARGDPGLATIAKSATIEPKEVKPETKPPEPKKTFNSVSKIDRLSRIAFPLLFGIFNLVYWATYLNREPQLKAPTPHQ
T4 sequence (P18507 whole entry): T3 sequence (P18507 whole entry)
T4 sequence (P28472 whole entry): T3 sequence (P28472 whole entry)

[9] = target: T1, GABA A receptor alpha-4/beta-3/gamma-2; assay: Effective agonist dose for human Gamma-aminobutyric acid A receptor alpha-4-beta-3-gamma-2; format: functional
[10] = target: T5, GABA-A receptor; alpha-2/beta-3/gamma-2 (Homo sapiens, UniProt P18507+P28472+P47869); assay: Effective dose for agonist activity on human Gamma-aminobutyric acid A receptor alpha-2-beta-3-gamma-2 in Xenopus oocytes; format: functional, cell-based, Oocyte
T5 sequence (P18507 whole entry): T3 sequence (P18507 whole entry)
T5 sequence (P28472 whole entry): T3 sequence (P28472 whole entry)
T5 sequence (P47869 whole entry): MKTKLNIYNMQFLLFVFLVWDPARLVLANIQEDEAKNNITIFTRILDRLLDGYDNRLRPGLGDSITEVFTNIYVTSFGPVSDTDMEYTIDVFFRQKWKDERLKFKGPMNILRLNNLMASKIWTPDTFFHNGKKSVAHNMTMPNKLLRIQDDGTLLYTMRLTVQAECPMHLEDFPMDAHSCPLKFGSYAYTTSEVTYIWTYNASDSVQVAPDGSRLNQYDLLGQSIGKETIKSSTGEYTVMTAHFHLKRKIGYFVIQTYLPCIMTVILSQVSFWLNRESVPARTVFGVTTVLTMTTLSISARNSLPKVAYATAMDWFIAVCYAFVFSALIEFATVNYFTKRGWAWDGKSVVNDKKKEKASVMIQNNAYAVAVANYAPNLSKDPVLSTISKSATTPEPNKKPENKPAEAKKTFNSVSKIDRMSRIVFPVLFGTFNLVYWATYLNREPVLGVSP

[11] = target: T6, GABA-A receptor; alpha-5/beta-3/gamma-2 (Homo sapiens, UniProt P18507+P28472+P31644); assay: Effective agonist dose for human Gamma-aminobutyric acid A receptor alpha-5-beta-3-gamma-2 expressed in Xenopus oocytes; format: functional, cell-based, Oocyte
T6 sequence (P18507 whole entry): T3 sequence (P18507 whole entry)
T6 sequence (P28472 whole entry): T3 sequence (P28472 whole entry)
T6 sequence (P31644 whole entry): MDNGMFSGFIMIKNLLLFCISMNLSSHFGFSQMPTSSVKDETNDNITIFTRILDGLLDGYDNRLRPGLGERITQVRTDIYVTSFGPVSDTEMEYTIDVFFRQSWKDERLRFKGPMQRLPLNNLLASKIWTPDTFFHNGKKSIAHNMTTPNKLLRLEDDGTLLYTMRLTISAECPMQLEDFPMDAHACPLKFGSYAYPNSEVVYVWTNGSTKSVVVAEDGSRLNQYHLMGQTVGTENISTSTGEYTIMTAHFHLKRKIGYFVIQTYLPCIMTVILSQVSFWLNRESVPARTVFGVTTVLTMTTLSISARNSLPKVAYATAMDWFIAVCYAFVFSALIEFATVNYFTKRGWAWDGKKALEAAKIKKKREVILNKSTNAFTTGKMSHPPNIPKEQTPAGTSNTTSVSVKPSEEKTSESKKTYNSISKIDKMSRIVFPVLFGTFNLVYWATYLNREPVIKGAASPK

[12] = target: T2, GABA-A receptor; alpha-6/beta-3/gamma-2; assay: Effective agonist dose for human Gamma-aminobutyric acid A receptor alpha-6-beta-3-gamma-2; format: functional
[13] = target: T3, GABA-A receptor; alpha-3/beta-3/gamma-2; assay: Antagonistic potency against human Gamma-aminobutyric acid A receptor alpha-3-beta-3-gamma-2 expressed in Xenopus oocytes at 1 mM; format: functional, cell-based, Oocyte
[14] = target: T6, GABA-A receptor; alpha-5/beta-3/gamma-2; assay: Antagonistic potency against human Gamma-aminobutyric acid A receptor alpha-5-beta-3-gamma-2 expressed in Xenopus oocytes at 1 mM; format: functional, cell-based, Oocyte
[15] = target: T4, GABA-A receptor; alpha-1/beta-3/gamma-2; assay: Antagonistic potency against human Gamma-aminobutyric acid A receptor alpha-1-beta-3-gamma-2 expressed in Xenopus oocytes at 1 mM; format: functional, cell-based, Oocyte
[16] = target: T1, GABA A receptor alpha-4/beta-3/gamma-2; assay: Antagonistic potency against human […] Gamma-aminobutyric acid A receptor alpha-4-beta-3-gamma-2; format: functional
[17] = target: T5, GABA-A receptor; alpha-2/beta-3/gamma-2; assay: Antagonistic potency against human Gamma-aminobutyric acid A receptor alpha-2-beta-3-gamma-2 expressed in Xenopus oocytes at 1 mM; format: functional, cell-based, Oocyte
[18] = target: T2, GABA-A receptor; alpha-6/beta-3/gamma-2; assay: Antagonistic potency against human Gamma-aminobutyric acid A receptor alpha-6-beta-3-gamma-2 expressed in Xenopus oocytes at 1 mM; format: functional, cell-based, Oocyte
[19] = target: T5, GABA-A receptor; alpha-2/beta-3/gamma-2; assay: Agonist activity on human Gamma-aminobutyric acid A receptor alpha-2-beta-3-gamma-2 expressed in Xenopus oocytes; format: functional, cell-based, Oocyte

T1 sequence (P48169 whole entry, one chain of several): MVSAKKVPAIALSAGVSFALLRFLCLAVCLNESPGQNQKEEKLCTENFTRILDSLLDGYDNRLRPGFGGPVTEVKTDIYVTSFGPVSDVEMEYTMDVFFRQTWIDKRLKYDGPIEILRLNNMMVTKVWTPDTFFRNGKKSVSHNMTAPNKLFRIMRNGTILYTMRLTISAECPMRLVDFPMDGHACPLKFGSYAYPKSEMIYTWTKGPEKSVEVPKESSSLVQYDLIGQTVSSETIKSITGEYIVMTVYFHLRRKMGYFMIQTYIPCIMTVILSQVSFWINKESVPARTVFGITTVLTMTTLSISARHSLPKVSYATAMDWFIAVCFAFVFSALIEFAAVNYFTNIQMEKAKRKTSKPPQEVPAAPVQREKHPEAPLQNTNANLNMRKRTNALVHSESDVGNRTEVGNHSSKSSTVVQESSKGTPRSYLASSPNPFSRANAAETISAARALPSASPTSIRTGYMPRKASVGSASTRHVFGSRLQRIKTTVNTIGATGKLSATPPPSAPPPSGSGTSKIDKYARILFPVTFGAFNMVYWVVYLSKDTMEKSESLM
T2 sequence (Q16445 whole entry, one chain of several): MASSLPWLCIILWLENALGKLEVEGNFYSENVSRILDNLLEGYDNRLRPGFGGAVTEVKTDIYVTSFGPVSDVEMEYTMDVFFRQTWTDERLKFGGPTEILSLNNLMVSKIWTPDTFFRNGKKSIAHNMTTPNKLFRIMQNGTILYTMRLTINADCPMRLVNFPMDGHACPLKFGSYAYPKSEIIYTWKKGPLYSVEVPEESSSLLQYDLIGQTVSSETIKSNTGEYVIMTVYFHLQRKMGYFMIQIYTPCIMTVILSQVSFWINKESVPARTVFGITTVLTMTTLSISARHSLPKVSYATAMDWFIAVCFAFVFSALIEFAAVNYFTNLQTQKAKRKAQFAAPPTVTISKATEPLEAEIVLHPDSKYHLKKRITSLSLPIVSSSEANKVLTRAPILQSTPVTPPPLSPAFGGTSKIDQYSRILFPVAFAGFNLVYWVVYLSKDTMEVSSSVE

Structure (SMILES) | Max [1] | Max [2] | Max [3] | Max [4] | Max [5] | Max [6] | EC50 [19] [µM] | EC50 [7] [µM] | EC50 [8] [µM] | EC50 [9] [µM] | EC50 [10] [µM] | EC50 [11] [µM] | EC50 [12] [µM] | Ki [13] [µM] | Ki [14] [µM] | Ki [15] [µM] | Ki [16] [µM] | Ki [17] [µM] | Ki [18] [µM]
NCCCC(=O)O | 100 | 100 | 100 | 100 | 100 | 100 | – | – | – | – | – | – | – | – | – | – | – | – | –
O=[Se](O)C1CCNCC1 | 3 | 0 | 2 | 28 | 3 | 13 | – | 180 | 200 | 160 | 170 | 420 | 240 | – | – | – | – | – | –
O=P(O)(O)C1CCNCC1 | – | – | – | – | – | – | – | – | – | – | – | – | – | 3800 | 2800 | 3300 | 3100 | 2100 | 4800
O=[PH](O)C1CCNCC1 | 5 | 0 | 17 | 29 | 17 | 35 | 280 | 160 | 270 | 140 | – | 260 | 140 | – | – | – | – | – | –

Further lines, with some results ahead:

Max [1] | Max [2] | Max [3] | Max [4] | Max [5] | Max [6] | EC50 [19] [µM] | Structure (SMILES) | EC50 [7] [µM] | EC50 [8] [µM] | EC50 [9] [µM] | EC50 [10] [µM] | EC50 [11] [µM] | EC50 [12] [µM] | Ki [13] [µM] | Ki [14] [µM] | Ki [15] [µM] | Ki [16] [µM] | Ki [17] [µM] | Ki [18] [µM]
88 | 88 | 88 | 69 | 94 | 98 | 50 | O=C(O)C1=CCNCC1 [ISOGUVACINE] | 55 | 160 | 180 | – | 75 | 20 | – | – | – | – | – | –
21 | 7.2 | 96 | 75 | 92 | 15 | 26 | O=S(=O)(O)C1CCNCC1 | 65 | 40 | 200 | – | 20 | 20 | – | – | – | – | – | –
